Experimental data published in PubChem BioAssay (NCI).
Several values for one entry are separate records, joined by “and”; a condition that tells them apart may be missing. Equal entries are not always repeated.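 Exposure lasted 48 hours, with cells grown in 96-well plates and compounds tested at five concentrations. Abbreviation: GI50, concentration required for 50% inhibition of growth. TGI marks complete inhibition of growth.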

Legend:
Assay in all cases: NCI anticancer screen, dose series, 48 h
IGROV1 ovarian = system: IGROV1 ovarian
SW-620 colon = system: SW-620 colon
SNB-19 CNS = system: SNB-19 CNS
SF-268 CNS = system: SF-268 CNS
HCT-116 colon = system: HCT-116 colon
A498 renal = system: A498 renal
OVCAR-3 ovarian = system: OVCAR-3 ovarian
EKVX NSCLC = system: EKVX NSCLC
MCF7 breast = system: MCF7 breast
NCI-H522 lung = system: NCI-H522 lung

Row | Structure (SMILES) | GI50 (IGROV1 ovarian) [µM] | TGI (IGROV1 ovarian) | GI50 (SW-620 colon) [µM] | TGI (SW-620 colon) [µM] | GI50 (SNB-19 CNS) [µM] | TGI (SNB-19 CNS) | GI50 (SF-268 CNS) [µM] | TGI (SF-268 CNS) [µM] | GI50 (HCT-116 colon) [µM] | TGI (HCT-116 colon) | GI50 (A498 renal) [µM] | TGI (A498 renal) | GI50 (OVCAR-3 ovarian) [µM] | TGI (OVCAR-3 ovarian) [µM] | GI50 (EKVX NSCLC) [µM] | TGI (EKVX NSCLC) [µM] | GI50 (MCF7 breast) [µM] | TGI (MCF7 breast) [µM] | GI50 (NCI-H522 lung) [µM] | TGI (NCI-H522 lung)
1 | CCN(c1cc(C#CCN2CCOCC2)cc(C(=O)NCc2c(C)cc(C)[nH]c2=O)c1C)C1CCC(N(C)CCOC)CC1 (configuration not stated) | > 100 | > 100 µM | > 100 | > 100 | > 100 | > 100 µM | > 100 | > 100 | > 100 | > 100 µM | > 100 | > 100 µM | > 100 | > 100 | > 100 | > 100 | > 100 | > 100 | > 100 | > 100 µM
2 | Cc1coc2c1C(OC(=O)C(C)C)C1(C)C(C)CCC(O)C1C2=O (configuration not stated) | – | > 100 µM | – | > 100 | – | – | – | > 100 | – | > 100 µM | – | > 100 µM | – | > 100 | – | > 100 | – | > 100 | – | > 100 µM
3 | Oc1ccc(N=Nc2ccccn2)c(O)c1 | 0.595 | > 100 µM | 0.757 | > 100 | 2.07 | > 100 µM | 0.732 | > 100 | 0.428 | > 100 µM | 16.7 | > 100 µM | 0.401 | > 100 | 0.407 | > 100 | 0.677 | > 100 | 2.68 | > 100 µM
4 | O=Nc1c(-c2c(O)[nH]c3ccc(Br)cc23)[nH]c2ccccc12 | 2.5 | > 100 µM | 3.64 | 9.41 | 7.99 | > 100 µM | 3.75 | 22.6 | – | – | 3.7 | 8.07 µM | 4.03 | 67.3 | 3 | 15.5 | 2.21 | 8.48 | 3.35 | 47.6 µM
5 | CS(=O)(=O)N(c1cc(-c2ccc3ncnc(Nc4cccc(Cl)c4)c3c2)cnc1Cl)S(C)(=O)=O | 0.0951 | 0.528 µM | 0.742 | 13.4 | 0.936 | 7.89 µM | 0.49 | 12.7 | 0.622 | 3.74 µM | 0.0685 | 0.388 µM | 0.333 | 1.88 | 0.357 | 2.25 | 0.23 | 9.69 | 0.645 | 7.74 µM
6 | CC(=O)c1cc(O)c2ccccc2c1O | 13 | 29.3 µM | 18.4 | 49.2 | 46 | > 100 µM | 18.8 | 33.4 | 17.6 | 34.5 µM | 89.5 | > 100 µM | 17.7 | 37.5 | 22.1 | 81.2 | 14.8 | 36.9 | 14.5 | 35.4 µM
7 | O=C(O)C(Oc1nc(=S)[nH]c(=S)[nH]1)(c1ccc(Cl)cc1)c1ccc(Cl)cc1 | – | > 100 µM | – | > 100 | – | > 100 µM | – | > 100 | – | > 100 µM | – | > 100 µM | – | > 100 | – | > 100 | – | > 100 | – | > 100 µM
8 | Cc1ccc(Sc2cc3c(oc2=O)-c2ccccc2OC3O)cc1 (configuration not stated) | 22.4 | 49.2 µM | 22.4 | 52.3 | 25 | 62.1 µM | 30.3 | 88.6 | 25.6 | 59.4 µM | 26.1 | 51.5 µM | 33.3 | 91.4 | 21.9 | 43.9 | 35.9 | > 100 | 18.1 | 38.8 µM
9 | CCCCCCCCCCCCCCCC1=NC(C)(C)CN1C(C)C | 1.12 | 2.41 µM | 1.52 | 2.85 | 2.04 | 5.02 µM | 1.47 | 2.79 | 1.22 | 2.46 µM | 2.41 | 6.24 µM | 0.824 | 2.09 | 1.74 | 4.24 | 1.55 | 3.01 | 1.55 | 3.02 µM
10 | C/C(=N\NC(=S)N(C)C)c1ccccn1 | 0.00402 | 4.66 µM | – | 35.4 | 0.011 | 16.3 µM | – | 11.7 | 0.000123 | – | – | 8.11 µM | 0.000474 | – | 0.143 | 3.07 | – | 13.4 | – | 1.98 µM
11 | CCN(CC)C(=S)[S][Bi]([S]C(=S)N(CC)CC)[S]C(=S)N(CC)CC | 0.577 | 1.8 µM | 0.0916 | 0.229 | 1.71 | 3.08 µM | 0.455 | 1.77 | 0.0858 | 0.247 µM | 1.24 | 2.49 µM | 0.0525 | 0.174 | 0.282 | 0.732 | 0.119 | 0.349 | 0.0157 | 0.0332 µM
12 | N#CC1C=Cc2c(ccc3ccccc23)N1C(=O)c1ccccc1 (configuration not stated) | 0.105 | 3.23 µM | 0.0657 | > 75.2 | 0.524 | > 100 µM | 1.05 | > 100 | 0.0637 | > 100 µM | 0.139 | 2.48 µM | 0.167 | 0.574 | 0.31 | – | 0.0413 | > 100 | 0.0274 | 0.0924 µM
13 | Nc1ncc(-c2cccc(S(N)(=O)=O)c2)c2scc(-c3ccc(F)c(Cl)c3)c12 | 6.58 | 22.3 µM | 6.21 | 14.3 | 10.6 | > 25 µM | 5.93 | > 25 | 4.34 | 8.29 µM | 5.73 | 15.4 µM | 5.42 | 12.5 | 7.75 | > 24.2 | 5.93 | 15.9 | 3.74 | 7.74 µM
14 | CC(C)(C)c1ccc(NS(=O)(=O)c2ccc3nc(NC(=O)c4cnccn4)[nH]c3c2)cc1 | 1.49 | 13.9 µM | 2.37 | 14.4 | 3.31 | 18.3 µM | 4.29 | 19.2 | 3.17 | 19.2 µM | 1.75 | 5.98 µM | 0.654 | 3.03 | 5.01 | 18.3 | 0.715 | 13.4 | 1.64 | 13.6 µM
15 | C[C@@H]1COCCN1c1cc(C2(O)C[C@H]3CC[C@@H](C2)O3)c2cnn(-c3ccn[nH]3)c2n1 (some centres not stated) | 0.0453 | 0.977 µM | 0.187 | > 37.7 | 0.166 | 1.74 µM | 0.111 | 2.04 | 0.118 | > 100 µM | 0.0221 | 0.13 µM | 0.0874 | 0.862 | 0.139 | 0.845 | < 0.0106 | 1.38 | 0.141 | 1.01 µM
16 | Cc1ccc(-c2cc(O)c(-c3ccc(C)cc3C)cc2O)c(C)c1 | 8.25 | 39 µM | 5.64 | 18.5 | 10.9 | 30.9 µM | 6.97 | 30.6 | 1.17 | 13.7 µM | 5.32 | 18 µM | 7.17 | 22.4 | 5.45 | 37.3 | 3.74 | 23.1 | 4.67 | 16.3 µM
17 | C/C=C(/C)C(=O)O[C@H]1[C@H](O)CC(c2ccc3c(c2O)C(O)=C2C(=O)C4(OC)C(O)=C(C(N)=O)C(=O)[C@H](CC(=O)c5ccccc5O)C4CC2[C@@]3(C)OC)O[C@@H]1C (some centres not stated) | – | 2.48 µM and 0.341 µM | – | 1.13 | – | 1.68 µM and 1.06 µM | – | 2.91 | – | 0.0262 µM and 0.0189 µM | 0.0198 | 2.21 µM and 1.49 µM | – | 1.9 | – | 0.518 | – | 1.15 | – | 1.21 µM and 1.83 µM
18 | O=[N+]([O-])c1cccc2nccc(NCCCO)c12 | – | 27.5 µM | – | 27.6 | – | 69.5 µM | – | 28.6 | – | > 100 µM | – | 23.6 µM | – | 35.3 | – | 23.2 | – | 27.9 | – | 20 µM
19 | CC1(C)C(=O)/C(=C\c2cccnc2)C[C@]2(C)[C@H]3CC[C@@H]4[C@@H](C(=O)/C=C/c5ccncc5)CC[C@@]4(C)[C@]3(C)CC[C@@H]12 | 2.03 | 4.05 µM | 1.81 | 4.59 | 1.66 | 3.22 µM | 2.41 | 6.53 | 1.62 | 3.16 µM | 1.89 | 3.7 µM | 1.7 | 3.36 | 2.82 | 9.2 | 0.804 | 4.62 | 1.66 | 4.6 µM
20 | C=CC1=C(C)C2=NC1=CC1=NC(=C(CC)/C1=C\O)C=C1N=C3C(=C1C)C(=O)[C@H](C(=O)OC)C3=C1NC(=C2)[C@@H](C)[C@@H]1CCC(=O)O | – | > 100 µM | – | > 100 | – | > 100 µM | – | > 100 | – | > 100 µM | – | > 100 µM | – | – | – | > 100 | – | > 100 | – | > 100 µM
21 | Cc1c(Cl)cccc1NC(=O)c1sc2nc3c(cc2c1N)CCCCC3 | 0.376 | > 50 µM | 0.232 | > 50 | 0.298 | > 50 µM | 0.426 | > 50 | 0.196 | > 50 µM | 0.331 | 19.3 µM | 0.173 | 1.69 | 0.316 | > 50 | 0.105 | > 50 | 0.187 | 42.3 µM
22 | O=c1oc2c(C(F)(F)F)cccc2cc1-c1csc(Nc2ccc(OCCF)cc2)n1 | 0.0757 | > 37 µM | 0.0468 | > 100 | 0.0873 | > 56.4 µM | 0.086 | > 60.5 | 0.032 | 0.54 µM | 0.0353 | 20.9 µM | 0.0357 | 5.75 | 0.0556 | > 100 | 0.0427 | > 37.6 | 0.0216 | 0.0766 µM
23 | O=C1OCC2=C1C(c1ccccc1)c1cc3c(cc1N2CCO)OCCO3 (configuration not stated) | 0.161 | 1.41 µM | 0.224 | > 50 | 0.921 | > 16.8 µM | 0.617 | > 35.3 | 0.226 | > 18.7 µM | 0.188 | 4.05 µM | 0.132 | 0.312 | 0.962 | > 50 | 0.175 | 48.6 | 0.0593 | 0.165 µM
24 | CC(C)=CCCC(C)C1=C(O)C(=O)C(C)=CC1=O (configuration not stated) | – | 32.8 µM | – | > 50.4 | – | > 62.4 µM | – | 56.6 | – | 12.8 µM | – | 35.1 µM | – | 18.3 | – | > 49.8 | – | 31.1 | – | 4.48 µM
25 | O=C(c1ccccc1)c1c(C(F)(F)F)n([O-])c2ccc(C(F)(F)F)cc2[n+]1=O | 0.205 | 0.408 µM | 0.135 | 0.279 | 0.83 | 2.1 µM | 0.195 | 0.449 | 0.138 | 0.27 µM | 1.7 | 3.11 µM | 0.252 | 0.66 | 0.234 | 0.597 | 0.305 | 0.82 | 0.306 | 0.971 µM
26 | Oc1ccc(Cc2cc(Cl)cc(Cl)c2O)cc1Cl | – | 34.1 µM | – | 41.2 | – | 33.7 µM | – | 31 | – | 37.2 µM | – | 33.8 µM | – | 36.6 | – | 40.2 | – | 32.5 | – | 31.6 µM
27 | CCN1CCC(O)(/C=C/c2ccc(OC)cc2)C(C(=O)/C=C/c2ccc(OC)cc2)C1 (configuration not stated) | – | 29.8 µM | – | 17.9 | – | 29.9 µM | – | 28.8 | – | 14.7 µM | – | 27.2 µM | – | 27.6 | – | 26.4 | – | 10.7 | – | 26.1 µM
28 | O=C(/C=C\c1ccccc1)N1CCc2ccccc2C1 | – | > 100 µM | – | > 100 | – | > 100 µM | – | > 100 | – | > 100 µM | – | > 100 µM | – | – | – | > 100 | – | > 100 | – | –
